Reference: patent EP4005558A1, “ANTICANCER AGENT AND METHOD FOR PREPARATION OF POROUS SILICA PARTICLE” (Lemonex Inc., priority 2019, dated 2022)

How the values were obtained:
[1] = tested on: MCF-7 cells; experiment: Cytotoxicity, MTT assay; type: cell-based; conditions: treatment for 1 day, compared to the non-treated group
Method: MCF-7 cells were seeded at 10,000 cells/well in 96-well cell culture plates. After 1 day, different concentrations of each particle (4 to 500 µg/mL) were treated with a serum-containing medium in each well for 1 day. Thereafter, the culture was performed for 4 hours while replacing the above medium with a serum-free medium containing 10 µl of MTT assay kit, and the supernatant was aspirated. DMSO was added to each well to dissolve formazan, and reacted for 1 hour. The absorbance was measured at a wavelength of 570 nm, and the cell viability was calculated as a relative value to that of the untreated group.
Cell viability was compared by MTT assay after treatment with FabBALL and Becl peptide carrying Becl peptide on MCF-7 cells.

[2] = tested on: MCF-7 cells expressing LC3-GFP; experiment: Number of GFP-LC3 puncta (autophagy induction); type: cell-based; conditions: MCF-7 expressing LC3-GFP, treated 6 hours in serum-free medium
Method: Using lipofectamine 2000, LC3-GFP plasmid was transfected into MCF-7 cells. Transfected MCF-7 was selected with 800 µg/mL of G418 for 3 months. […] 100,000 MCF-7 cells expressing LC3-GFP were seeded.
40 µg of dye-labeled particles and 4 µg of bec1 peptide were mixed, and the cells were treated for 6 hours in a serum-free medium. Cells were fixed with 4% PFA, and nuclei were stained with DAPI. Images were obtained with a Delta-vision microscope, and the number of GFP-LC3 puncta was measured in 100 cells for each group.
LC3 protein is a biomarker involved in the elongation process of autophagosome, and its expression level is known to increase with the progress of autophagosome.

## CGGTNVFNATFHIWHSGQFGT [Becl peptide]
[1]
  cell viability: not significantly varied
[2]
  GFP puncta: very little amount
